“Also recorded” adds a separate entry of the source.
What was measured:
[1] = biological target: TrkA (Homo sapiens, UniProt P04629); settings: cited from earlier work
[2] = biological target: TrkC (Homo sapiens, UniProt Q16288); settings: cited from earlier work
[3] = system: prenatally cocaine-exposed mice; assay: Olfactory (odor) reversal learning, go no-go olfactometer paradigm; format: in vivo, mouse (Swiss Webster)
Experimental: Swiss Webster mice were housed in a temperature and humidity controlled environment on a 12 hr light/dark cycle with food and water available ad libitum were bred to obtain timed pregnancies.
Singly housed dams received twice daily (7 AM and 7 PM) subcutaneous injections of cocaine (20 mg/kg/injection: total daily dose=40 mg/kg/day) or saline (same volume and time of administration as the cocaine injection) from the 8th day of pregnancy until the day of birth. The period of cocaine exposure corresponds to mid-first trimester of human pregnancies.
(§1) Olfactometry: Reversal learning was assayed in an automated olfactometer based on odor learning and detection using water as reward (41, 42). Briefly, odorants were presented via an 8-channel liquid dilution computerized olfactometer (Knosys LD8-1, Tampa, Fla.) so that odorant threshold determinations were automated and stimulus concentration, timing of onset and offset, and stimulus control of behavior could be controlled reliably. We modified our Knosys system to provide additional mechanical dampening of the solenoid pinch valves to permit incorporation of materials for mounting the machine in-line with sterilization of the olfactometer.
The Knosys olfactometer employs operant conditioning in the form of both positive and negative reinforcements. Positive reinforcement is used when pairing an odorant with water reward (S+). A 10-second time out or negative reinforcement occurs as a result of a mouse responding to a negative cue or diluent (S−). Mice were therefore trained in a classical “go no-go” operant conditioning paradigm to recognize an odorant.
Operant training: Mice were water-deprived to 85% of their baseline bodyweight to motivate them for a water reward. Operant training was performed using a step-wise battery of tasks that began with reward reinforcement for learning to lick a water delivery tube and snout insertion into the odor sampling port. Mice advanced to the next stage after 30 reinforcements. Next, mice were reinforced for lick decisions paired with a positively entrained odor (S+). They were required to nose poke for an extended period of time to sample an odor prior to receiving water reinforcement.
During the go no-go operant training mice inserted their snout into the odor sampling port to initiate a trial and waited until the odor stimulus was presented. […] The mice were rewarded for lick decisions paired with a positively entrained odor (S+) and also for correct rejections paired with a negatively entrained odor (S−). This establishes the “go no-go” reward criteria. The percentage of correct responses per trial was determined by the formula: % correct responses=[(HITs+Correct Rejections)/20]×100, where a HIT is defined as a criterion response in the presence of S+, and a Correct Rejection (CR) is a failure to make a criterion response in the presence of […] 20 represents the number of trials per block.
Odor Reversal Learning: Once mice achieved criteria performance on the two-odor discrimination testing for a week, mice underwent an odor-reversal learning paradigm. Here mice were introduced to the switch (reversal) of the S+ for the S− stimulus where the previously rewarded odor stimulus now lacked the water reward and the previously unrewarded odor stimulus was now paired with the water reward.
The scent stimuli used were 5% Ethyl Acetate (EA) and 1% Acetophenone (AP).
Upon successful completion of the training phase and odor discrimination phase a subset of mice were randomly assigned to the ANA-12 injection group. ANA-12 (Sigma Aldrich, St. Louis, Mo.; SML0209) was administered twice daily [0.5 mg/kg; 1.0 mg/kg/day intraperitoneal (i.p.)] for 13 consecutive days. ANA-12 was dissolved in 100% DMSO (stock), and diluted further such that the final concentration of DMSO administered to the mice was 1%. On days 8-10 of the injection period, the mice were water deprived (to 85% of pre-deprivation weight). […]

[4] = system: prenatally cocaine-exposed mice; assay: Odor versus odor discrimination (two-odor discrimination testing); format: in vivo, mouse (Swiss Webster); settings: ANA-12 i.p. twice a day, 1 mg/kg/day; data not shown
Experimental: as §1
During the go no-go operant training mice inserted their snout into the odor sampling port to initiate a trial and waited until the odor stimulus was presented. […] The mice were rewarded for lick decisions paired with a positively entrained odor (S+) and also for correct rejections paired with a negatively entrained odor (S−). This establishes the “go no-go” reward criteria. The percentage of correct responses per trial was determined by the formula: % correct responses=[(HITs+Correct Rejections)/20]×100, where a HIT is defined as a criterion response in the presence of S+, and a Correct Rejection (CR) is a failure to make a criterion response in the presence of […] 20 represents the number of trials per block. […]

[5] = system: mice; settings: mice dosed with ANA-12; Cazorla et al., J. Clin. Invest. 121(5), 1846-57 (2011); cited from earlier work

Sequence of TrkC (Q16288 32-839, species assumed): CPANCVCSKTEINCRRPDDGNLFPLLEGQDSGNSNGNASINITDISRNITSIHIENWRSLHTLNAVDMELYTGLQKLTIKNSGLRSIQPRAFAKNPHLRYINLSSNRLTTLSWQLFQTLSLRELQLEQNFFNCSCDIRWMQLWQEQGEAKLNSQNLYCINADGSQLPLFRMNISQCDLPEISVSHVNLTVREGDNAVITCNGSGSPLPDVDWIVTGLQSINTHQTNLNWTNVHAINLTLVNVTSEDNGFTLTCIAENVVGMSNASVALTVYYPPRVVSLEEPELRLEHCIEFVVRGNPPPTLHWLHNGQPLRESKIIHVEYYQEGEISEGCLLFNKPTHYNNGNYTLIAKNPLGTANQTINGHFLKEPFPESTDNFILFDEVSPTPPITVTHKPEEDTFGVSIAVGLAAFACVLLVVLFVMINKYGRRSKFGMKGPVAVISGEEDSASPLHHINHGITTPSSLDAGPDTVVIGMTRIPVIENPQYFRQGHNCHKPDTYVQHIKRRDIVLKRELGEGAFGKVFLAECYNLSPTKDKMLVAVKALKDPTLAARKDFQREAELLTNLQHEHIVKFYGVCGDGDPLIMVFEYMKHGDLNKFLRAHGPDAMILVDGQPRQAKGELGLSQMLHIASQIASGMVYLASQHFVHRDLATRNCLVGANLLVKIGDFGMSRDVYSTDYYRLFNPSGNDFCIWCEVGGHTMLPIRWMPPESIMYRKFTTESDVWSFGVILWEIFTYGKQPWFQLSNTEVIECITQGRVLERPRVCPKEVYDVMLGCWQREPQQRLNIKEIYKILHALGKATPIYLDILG
Sequence of TrkA (P04629 33-796, species assumed): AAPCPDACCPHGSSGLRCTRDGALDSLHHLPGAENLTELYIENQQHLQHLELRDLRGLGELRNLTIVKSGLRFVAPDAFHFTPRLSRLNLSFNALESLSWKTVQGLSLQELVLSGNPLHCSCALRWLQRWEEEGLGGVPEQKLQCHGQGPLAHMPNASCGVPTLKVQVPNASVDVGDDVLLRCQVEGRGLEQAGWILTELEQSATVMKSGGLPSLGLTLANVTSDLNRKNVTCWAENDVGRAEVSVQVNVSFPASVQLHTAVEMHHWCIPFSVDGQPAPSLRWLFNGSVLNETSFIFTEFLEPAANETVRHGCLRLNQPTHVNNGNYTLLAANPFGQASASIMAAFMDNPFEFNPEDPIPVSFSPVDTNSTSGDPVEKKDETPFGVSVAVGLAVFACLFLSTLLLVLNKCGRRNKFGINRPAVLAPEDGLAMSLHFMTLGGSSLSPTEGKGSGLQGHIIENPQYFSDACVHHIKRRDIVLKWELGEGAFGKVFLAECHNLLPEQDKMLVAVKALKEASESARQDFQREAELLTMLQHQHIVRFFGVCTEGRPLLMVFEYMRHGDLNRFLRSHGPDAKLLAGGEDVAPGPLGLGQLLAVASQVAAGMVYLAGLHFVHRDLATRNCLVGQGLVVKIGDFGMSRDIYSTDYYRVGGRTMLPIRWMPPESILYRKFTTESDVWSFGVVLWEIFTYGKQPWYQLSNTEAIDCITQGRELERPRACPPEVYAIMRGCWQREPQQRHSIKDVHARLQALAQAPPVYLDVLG

O=C(Nc1ccccc1C(=O)NC1CCCCNC1=O)c1cc2ccccc2s1 (stereo not shown) [ANA-12, N-[2-[[(Hexahydro-2-oxo-1H-azepin-3-yl)amino]carbonyl]phenyl]-benzo[b]thiophene-2-carboxamide]
effect on TrkA functions [1]: without substantially altering
effect on TrkC functions [2]: without substantially altering
performance in the reversal paradigm ([3]; ANA-12 treated prenatally cocaine-exposed mice vs prenatally cocaine-exposed mice, i.p. 1 mg/kg/day, 13 days, 1 mg/kg/day): performed better; also recorded: significant improvement in performance
cognitive flexibility of treated subjects ([3]; ANA-12 treatment, summary statement): a statistically significant number of subjects tested showed improved cognitive flexibility
Number of trials to reach criteria (≥80%), Mean±SEM ([3]; Cocaine+ANA12 group, i.p. 1 mg/kg/day, 13 days): 255.0±9.6
difference in number of trials to reach criteria vs saline-exposed mice ([3]; Mann-Whitney's U test, saline vs cocaine+ANA-12, p>0.05): no significant difference
time course of reversal learning vs saline-exposed mice ([3]; Student's t-test, p>0.05): not significantly different
median number of trials needed to reach criteria following reversal of the odors ([3]; cocaine+ANA-12 group): 290
mean rank, Mann-Whitney's U test, number of trials to reach criteria ([3]; cocaine+ANA-12 group vs saline (U=3.5, p>0.05)): 22.5
% correct responses in reversal learning, post-hoc Bonferroni comparison cocaine versus cocaine+ANA-12 ([3]; day 2 (blocks 11-20), t=3.557, df=124, p<0.01, FIG. 2A): significant difference
percentage of mice that reached criteria (at least 80% correct) over the two days ([3]; prenatally cocaine-exposed mice injected with ANA-12, FIG. 2B): 57%
correct hits in odor versus odor discrimination [4]: > 80%
anxiety- and depression-related behaviors [5]: reduced anxiety- and depression-related behaviors

Source: patent US10245271B2, “Treatment of impaired cognitive flexibility with TrkB receptor antagonists” (Florida State University Research Foundation, Inc., priority 2015, dated 2019)
